Legend:
Assay in all cases: relative viability (nuclei count vs DMSO), 5 days (fraction); higher = more cells survive
[1] = system: 201T
How it was run: (§1)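 Nuclei were stained with Hoechst during a one-step fixation (final 0.05% Triton X-100, 1% formaldehyde, 1 ug/ml Hoechst) carried out 5 days after dosing, then counted on 4× images. The cells, lung cancer lines in 1536-well plates, had been dosed by pin tool the day after seeding with one drug alone or a fixed anchor-drug dose plus five library-drug doses (not always all listed) in √10 steps. Relative viability is the nuclei count in treated wells divided by that in vehicle wells, and each value is the median of duplicate plates.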

[2] = system: COR-L23
How it was run: as §1

[3] = system: ChaGo-K-1
How it was run: as §1

[4] = system: HOP-62
How it was run: as §1

[5] = system: LC-2-ad
How it was run: as §1

[6] = system: NCI-H1355
How it was run: as §1

[7] = system: NCI-H1395
How it was run: as §1

[8] = system: NCI-H1651
How it was run: as §1

[9] = system: NCI-H1666
How it was run: as §1

[10] = system: NCI-H1734
How it was run: as §1

SMILES: COCC1(CO)C(=O)C2CCN1CC2 (configuration not stated) [PRIMA-1MET] + Nc1ncn([C@H]2C[C@H](O)[C@@H](CO)O2)c(=O)n1 [Decitabine] (partner 2 µM)
- relative viability ([1]; first compound 0.2 µM): 0.921
- relative viability ([1]; first compound 0.6325 µM): 0.607
- relative viability ([1]; first compound 2 µM): 0.762
- relative viability ([1]; first compound 6.325 µM): 0.87
- relative viability ([1]; first compound 20 µM): 0.896
- relative viability ([2]; first compound 0.2 µM): 0.538
- relative viability ([2]; first compound 0.6325 µM): 0.243
- relative viability ([2]; first compound 2 µM): 0.397
- relative viability ([2]; first compound 6.325 µM): 0.439
- relative viability ([2]; first compound 20 µM): 0.036
- relative viability ([3]; first compound 0.2 µM): 0.514
- relative viability ([3]; first compound 0.6325 µM): 0.362
- relative viability ([3]; first compound 2 µM): 0.557
- relative viability ([3]; first compound 6.325 µM): 0.518
- relative viability ([3]; first compound 20 µM): 0.518
- relative viability ([4]; first compound 0.2 µM): 0.22
- relative viability ([4]; first compound 0.6325 µM): 0.217
- relative viability ([4]; first compound 2 µM): 0.207
- relative viability ([4]; first compound 6.325 µM): 0.203
- relative viability ([4]; first compound 20 µM): 0.169
- relative viability ([5]; first compound 0.2 µM): 0.902
- relative viability ([5]; first compound 0.6325 µM): 0.607
- relative viability ([5]; first compound 2 µM): 0.773
- relative viability ([5]; first compound 6.325 µM): 0.776
- relative viability ([5]; first compound 20 µM): 0.776
- relative viability ([6]; first compound 0.2 µM): 0.366
- relative viability ([6]; first compound 0.6325 µM): 0.347
- relative viability ([6]; first compound 2 µM): 0.338
- relative viability ([6]; first compound 6.325 µM): 0.329
- relative viability ([6]; first compound 20 µM): 0.323
- relative viability ([7]; first compound 0.2 µM): 0.712
- relative viability ([7]; first compound 2 µM): 0.708
- relative viability ([7]; first compound 6.325 µM): 0.838
- relative viability ([7]; first compound 20 µM): 0.67
- relative viability ([8]; first compound 0.2 µM): 0.616
- relative viability ([8]; first compound 0.6325 µM): 0.178
- relative viability ([8]; first compound 2 µM): 0.585
- relative viability ([8]; first compound 6.325 µM): 0.666
- relative viability ([8]; first compound 20 µM): 0.6
- relative viability ([9]; first compound 0.2 µM): 0.637
- relative viability ([9]; first compound 0.6325 µM): 0.492
- relative viability ([9]; first compound 2 µM): 0.645
- relative viability ([9]; first compound 6.325 µM): 0.724
- relative viability ([9]; first compound 20 µM): 0.756
- relative viability ([10]; first compound 0.2 µM): 0.481
- relative viability ([10]; first compound 0.6325 µM): 0.289
- relative viability ([10]; first compound 2 µM): 0.456
